Results: patent US20260315487A1, “IKK-ALPHA INHIBITORS” (Cancer Research Technology Limited, priority 2023, published 2026)
Where two headings read alike, the source gives them in different places.

Columns and labels:
PRAK = biological target: T1, PRAK (Homo sapiens, UniProt Q8IW41); assay: kinome profiling at 1 μM, PRAK; assay type: biochemical
T1 sequence (Q8IW41 1-473): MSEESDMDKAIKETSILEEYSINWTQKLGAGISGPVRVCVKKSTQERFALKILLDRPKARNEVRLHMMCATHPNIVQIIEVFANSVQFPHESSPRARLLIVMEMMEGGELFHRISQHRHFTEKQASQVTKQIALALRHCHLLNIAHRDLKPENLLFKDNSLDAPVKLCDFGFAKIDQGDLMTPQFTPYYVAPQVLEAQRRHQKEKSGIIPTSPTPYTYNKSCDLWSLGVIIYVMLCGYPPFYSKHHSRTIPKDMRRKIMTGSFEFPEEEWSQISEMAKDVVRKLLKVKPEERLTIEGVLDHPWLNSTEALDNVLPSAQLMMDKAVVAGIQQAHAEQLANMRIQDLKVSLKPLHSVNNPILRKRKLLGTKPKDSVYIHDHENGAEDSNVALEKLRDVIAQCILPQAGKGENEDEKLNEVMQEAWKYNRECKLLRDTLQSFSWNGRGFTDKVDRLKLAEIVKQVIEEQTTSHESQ
Source text: (§1) We profiled three compounds from the series across the kinome (FIG. 11). […] To identify the structural drivers for CDK inhibition, we obtained X-ray crystal structures of 5 y and 6 g SU1336 and SU1349 with CDK-2 (FIG. 12A) to potentially identify possible routes towards introducing selectivity for IKKα over the CDK enzymes as well as IKKβ. […] All three derivatives form complexes with CDK2 with the pyrrolo[2,3 -b]pyridine H-bonding to GK+3 (Leu 83 ) and the aminoindazole projected towards the G-loop (FIG. 12A), forming H-bonds with Glu 51 and Lys 33 at the back of the pocket. The adoption of the 4 SU1253 -type orientation, rather than the flipped pose observed in IKKα, is probably facilitated by Tr-stacking between the aminoindazole and the GK residue, which in the CDKs is Phe, rather than Met. […] For 6 g SU1349, the hydrophobic pendant benzyloxy group points out into solvent, but can form face-to-edge Tr-Tr interactions with Phe 82 and His 84 from the hinge. Exchanging the hydrophobic pendant benzyloxy group for the morpholinoethyl-containing substituent in 5 y SU1336 removes any direct interaction with these hinge residues, preferring to sit in a more solvent-exposed position, as befits a basic side chain that will be protonated at physiological pH (FIG. 12B).

panel of kinases = assay: kinome profiling at 1 μM; assay type: biochemical
Source text: as §1
(§2) Black, 4 SU1253; grey, 5 r SU1261; diagonal stripes, 6 g SU1349. […] All tested compounds (4 SU1253, 5 r SU1261 and 6 g SU1349 ) inhibited CDK5 and CDK9 with >80 %.

CDK9 = CDK9 (Homo sapiens, UniProt P50750); assay: kinome profiling at 1 μM, CDK9; assay type: biochemical; conditions: read-out: % inhibition of CDK9
Chain of CDK9 (P50750 whole entry, species assumed): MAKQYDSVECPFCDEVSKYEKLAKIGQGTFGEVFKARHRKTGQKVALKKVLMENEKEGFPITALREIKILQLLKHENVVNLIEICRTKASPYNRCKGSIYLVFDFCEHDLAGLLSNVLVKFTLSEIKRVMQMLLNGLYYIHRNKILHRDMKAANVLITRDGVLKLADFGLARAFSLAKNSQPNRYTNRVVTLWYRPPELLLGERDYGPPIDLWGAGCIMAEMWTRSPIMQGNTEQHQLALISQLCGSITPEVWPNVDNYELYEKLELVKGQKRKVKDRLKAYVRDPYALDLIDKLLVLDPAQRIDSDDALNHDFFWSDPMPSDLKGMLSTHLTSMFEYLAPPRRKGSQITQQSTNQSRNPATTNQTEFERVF
Chain of CDK9 (O60563 whole entry partner, species assumed): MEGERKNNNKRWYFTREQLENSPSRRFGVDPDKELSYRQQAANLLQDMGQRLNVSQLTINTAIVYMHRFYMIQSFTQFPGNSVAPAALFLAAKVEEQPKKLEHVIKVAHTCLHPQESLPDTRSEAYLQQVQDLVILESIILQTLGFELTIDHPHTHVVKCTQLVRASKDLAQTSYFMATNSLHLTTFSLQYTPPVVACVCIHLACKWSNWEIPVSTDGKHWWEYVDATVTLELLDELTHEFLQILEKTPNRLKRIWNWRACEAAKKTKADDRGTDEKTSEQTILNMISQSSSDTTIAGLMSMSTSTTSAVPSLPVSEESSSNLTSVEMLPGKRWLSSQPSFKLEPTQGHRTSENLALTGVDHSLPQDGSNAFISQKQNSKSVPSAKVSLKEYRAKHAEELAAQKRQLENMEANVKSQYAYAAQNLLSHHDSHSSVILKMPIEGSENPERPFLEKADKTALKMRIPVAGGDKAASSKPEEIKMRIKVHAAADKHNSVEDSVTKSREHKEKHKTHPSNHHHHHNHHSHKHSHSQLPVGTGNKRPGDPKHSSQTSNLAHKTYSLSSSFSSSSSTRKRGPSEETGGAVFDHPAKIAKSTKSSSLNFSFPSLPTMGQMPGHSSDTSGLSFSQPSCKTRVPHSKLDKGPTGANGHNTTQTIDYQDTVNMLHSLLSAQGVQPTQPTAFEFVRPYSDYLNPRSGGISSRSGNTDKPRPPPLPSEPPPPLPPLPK
Source text: as §1, §2

CDK5 = CDK5 (Homo sapiens, UniProt Q00535); assay: kinome profiling at 1 μM, CDK5; assay type: biochemical; conditions: read-out: % inhibition of CDK5
Chain of CDK5 (Q00535 whole entry, species assumed): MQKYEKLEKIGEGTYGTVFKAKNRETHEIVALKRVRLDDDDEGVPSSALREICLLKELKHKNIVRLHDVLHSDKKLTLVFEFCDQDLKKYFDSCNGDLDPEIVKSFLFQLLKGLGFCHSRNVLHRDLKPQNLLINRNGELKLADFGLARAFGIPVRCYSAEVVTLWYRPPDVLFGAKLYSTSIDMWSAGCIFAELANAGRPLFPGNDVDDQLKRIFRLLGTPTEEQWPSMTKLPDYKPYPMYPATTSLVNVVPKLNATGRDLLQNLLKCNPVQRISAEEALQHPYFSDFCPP
Chain of CDK5 (Q15078 99-307 partner limits assumed, species assumed): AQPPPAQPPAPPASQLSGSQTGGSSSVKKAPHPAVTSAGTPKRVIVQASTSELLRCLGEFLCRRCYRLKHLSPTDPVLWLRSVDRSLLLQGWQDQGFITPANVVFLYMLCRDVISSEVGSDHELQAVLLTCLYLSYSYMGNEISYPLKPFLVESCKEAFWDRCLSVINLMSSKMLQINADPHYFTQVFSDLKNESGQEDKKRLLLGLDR
Source text: as §1, §2

MKK7 P = biological target: T2, MKK7 P (Homo sapiens, UniProt O14733); assay: kinome profiling at 1 μM, MKK7; assay type: biochemical
T2 sequence (O14733 1-419): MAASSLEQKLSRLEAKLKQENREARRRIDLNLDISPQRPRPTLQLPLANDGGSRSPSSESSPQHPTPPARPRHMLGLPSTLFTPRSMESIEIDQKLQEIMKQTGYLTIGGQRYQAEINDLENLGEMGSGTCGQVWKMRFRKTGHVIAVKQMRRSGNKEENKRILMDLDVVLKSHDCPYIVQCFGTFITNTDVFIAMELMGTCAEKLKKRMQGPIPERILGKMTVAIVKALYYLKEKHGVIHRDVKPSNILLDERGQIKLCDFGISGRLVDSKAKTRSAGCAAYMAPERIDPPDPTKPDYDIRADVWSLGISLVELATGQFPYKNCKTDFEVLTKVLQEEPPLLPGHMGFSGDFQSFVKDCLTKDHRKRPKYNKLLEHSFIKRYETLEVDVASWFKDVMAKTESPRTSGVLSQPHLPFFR
Source text: as §1

[1] = mouse hepatocyte clearance (cryopreserved pooled mouse CD1 hepatocytes); assay type: in vitro ADME; conditions: mouse, hepatocytes; 1 μM; 0.5×10^6 cells/mL; 37° C.
Protocol: Pharmacokinetic studies were contracted to Sygnature Discovery Limited. Intrinsic clearance and half life were determined using cryopreserved pooled mouse CD1 hepatocytes. Test compounds were analysed at 1 μM in Williams Media E buffer (0.01 % DMSO) at a cell density of 0.5×10^6 cells mL^−1 . Cells were incubated at 37° C. for one hour with shaking and compound depletion was measured by LC-MS/MS at six timepoints (0.25, 5, 10, 20, 40, and 60 minutes).

SMILES	inhibition at 1 µM (PRAK) [%]	number of kinases inhibited by >80 % (panel of kinases; panel of 231 kinases) [kinases]	number of kinases inhibited by >80 % (panel of kinases; panel of 253 kinases (FIG. 11)) [kinases]	inhibition at 1 µM (CDK9; 1 μM) [%]	inhibition at 1 µM (CDK5; 1 μM) [%]	inhibition at 1 µM (MKK7 P; read-out: % inhibition of MKK7) [%]	hepatocyte CLint [1] [µL/min/1e6 cells]	off-target inhibition of PRAK, in words (PRAK; compared with 5r SU1261)	inhibition at 1 µM (CDK9) [%]	inhibition at 1 µM (CDK5) [%]	off-target inhibition of MKK7, in words (MKK7 P; 1 μM, compared with 5r SU1261)
Nc1n[nH]c2ccc(-c3ccnc4[nH]c(-c5cccc(OCc6ccccc6)c5)cc34)cc12 [5r SU1261, 5-(2-(3-(benzyloxy)phenyl)-1 H-pyrrolo[2,3-b]pyridin-4-yl)-1 H-indazol-3-amine]	> 80	10	10	> 80	> 80	> 80	38	–	–	–	–
Nc1n[nH]c2ccc(-c3ccnc4[nH]c(-c5ccnc(OCc6ccccc6)c5)cc34)cc12 [6g SU1349, 5-(2-(2-(Benzyloxy)pyridin-4-yl)-1 H-pyrrolo[2,3-b]pyridin-4-yl)-1 H-indazol-3-amine]	–	–	4	–	–	–	27	significantly reduced off-target inhibition	> 80	> 80	significantly reduced off-target inhibition
